The results in this text go back to patent US8841312B2, “Fused pyridine, pyrimidine and triazine compounds as cell cycle inhibitors” (Amgen Inc., priority 2007, dated 2014).

Cdk4/CyclinD1, sequence (P11802 whole entry): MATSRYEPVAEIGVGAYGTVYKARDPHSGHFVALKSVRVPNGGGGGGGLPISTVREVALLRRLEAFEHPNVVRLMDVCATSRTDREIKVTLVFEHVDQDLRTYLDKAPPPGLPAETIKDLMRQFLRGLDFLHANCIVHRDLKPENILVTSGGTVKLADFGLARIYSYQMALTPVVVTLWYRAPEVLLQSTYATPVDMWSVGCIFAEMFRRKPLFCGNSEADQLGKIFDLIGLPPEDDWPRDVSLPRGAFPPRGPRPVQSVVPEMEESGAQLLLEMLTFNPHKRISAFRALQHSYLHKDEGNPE
Cdk4/CyclinD1, sequence (P24385 whole entry partner): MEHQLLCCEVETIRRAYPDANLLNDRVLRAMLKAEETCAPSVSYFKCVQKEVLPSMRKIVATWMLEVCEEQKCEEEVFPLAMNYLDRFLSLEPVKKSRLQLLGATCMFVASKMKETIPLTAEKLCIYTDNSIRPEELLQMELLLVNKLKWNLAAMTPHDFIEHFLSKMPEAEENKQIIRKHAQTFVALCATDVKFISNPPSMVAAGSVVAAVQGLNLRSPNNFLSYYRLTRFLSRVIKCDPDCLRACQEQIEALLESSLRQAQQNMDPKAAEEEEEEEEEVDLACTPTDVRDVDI

The target of this experiment is Cdk4/CyclinD1 (Homo sapiens (Human), UniProt P11802). The experiment is described as follows: Cdk4 kinase inhibition assay with recombinant Cdk4/CyclinD1, Rb substrate, [33P]-ATP filter plate. Type of experiment: biochemical. As to conditions: 25 μM ATP, read-out: Cdk 4 IC50. How it is done:
The Cdk4 and Cdk6 inhibitory activity of the compounds is measured with a kinase inhibition assay using recombinant Cdk4/CyclinD1 or Cdk6/CyclinD3 protein complexes. The protein substrate used in the assay is the retinoblastoma protein (Rb). The kinase reactions are carried out in a 96-well filter plate (MSDV N6B50, Millipore). […] The mixture is incubated at room temperature for 1 hour and the proteins precipitated with an equal volume of 20% TCA. The plates are washed with 10% TCA according to the manufacturer's instruction and dried at room temperature. The amount of the phosphorylated Rb is determined with a TopCount (PerkinElmer). The IC50 of a compound is determined by nonlinear regression curve fitting using software program Prism 5 (GraphPad Software).
With `CC1(C)CN(c2ccc(Nc3ncc4c5ccncc5n(C5CCCC5)c4n3)nn2)CCN1` [Example 10], the IC50 came out at 2.2 nM. The same measure for `CN(C)C1CCN(c2ccc(Nc3ncc4c5ccncc5n(C5CCCC5)c4n3)nc2)CC1` [Example 12]: 9.6 nM. The same measure for `c1ccc(-n2c3cnccc3c3cnc(Nc4ccc(N5CCNCC5)cc4)nc32)cc1` [Example 17, (9-Phenyl-9H-pyrido[4′,3′:4,5]pyrrolo[2,3-d]pyrimidin-2-yl)-(4-piperazin-1-yl-phenyl)amine]: 0.32 nM; for `c1cc2c3cnc(Nc4ccc(N5CCNCC5)cn4)nc3n(C3CCCCC3)c2cn1` [Example 23, (9-Cyclohexyl-9H-pyrido[4′,3′,4,5]pyrrolo[2,3-d]pyrimidin-2-yl)-(5-piperazin-1-yl-pyridin-2-yl)-amine]: 11 nM. The same measure for `Fc1cncc2c1c1cnc(Nc3ccc(N4CCNCC4)cn3)nc1n2C1CCCC1` [Example 58, 9-Cyclopentyl-5-fluoro-N-(5-(1-piperazinyl)-2-pyridinyl)-9H-pyrido[4′,3′:4,5]pyrrolo[2,3-d]pyrimidin-2-amine]: 5.2 nM; for `c1ncc2c(n1)c1cnc(Nc3ccc(N4CCNCC4)cn3)nc1n2C1CCCC1` [Example 59, 5-Cyclopentyl-N-(5-(1-piperazinyl)-2-pyridinyl)-5H-pyrimido[4′,5′:4,5]pyrrolo[2,3-d]pyrimidin-7-amine]: 15 nM.

For the compound `NCC1CCN(c2ccc(Nc3ncc4c5ccncc5n(C5CCCC5)c4n3)nc2)CC1` [Example 60, 4-Aminomethyl-1-(6-((9-cyclopentyl-9H-pyrido[4′,3′:4,5]pyrrolo[2,3-d]pyrimidin-2-yl)amino)-3-pyridinyl)-piperidine], the IC50 was determined as 4 nM. Take `C[C@@H]1CN(c2ccc(Nc3ncc4c5ccncc5n(C5CCCC5)c4n3)nc2)CCN1` [Example 61]: the IC50 turned out to be 1.7 nM. The same measure for `C[C@H]1CN(c2ccc(Nc3ncc4c5ccncc5n(C5CCCC5)c4n3)nc2)CCN1` [Example 62]: 2 nM. The same measure for `NCC1CCCN(c2ccc(Nc3ncc4c5ccncc5n(C5CCCC5)c4n3)nc2)C1` (stereo not shown) [Example 67]: 1.3 nM. With `c1cc2c3cnc(Nc4ccc(NCC5CCNC5)cn4)nc3n(C3CCCC3)c2cn1` (stereo not shown) [Example 70], the IC50 came to 3.6 nM. The same measure for `CC1CN(c2ccc(Nc3ncc4c5ccncc5n(C5CCCC5)c4n3)nc2)CC(C)N1` (stereo not shown) [Example 72]: 2.3 nM. The same measure for `COC1CCN(c2ccc(Nc3ncc4c5ccncc5n(C5CCCC5)c4n3)nc2)C1` (stereo not shown) [Example 73]: 17 nM; for `CC1CCN(c2ccc(Nc3ncc4c5ccncc5n(C5CCCC5)c4n3)nc2)C1` (stereo not shown) [Example 74]: 56 nM; for `CNC1CCN(c2ccc(Nc3ncc4c5ccncc5n(C5CCCC5)c4n3)nc2)CC1` [Example 75]: 1.4 nM.

Consider `c1cc2c3cnc(Nc4ccc(N5CCC(N6CCCC6)CC5)cn4)nc3n(C3CCCC3)c2cn1` [Example 76], for which the concentration for half-maximal inhibition (IC50) was 5.9 nM. With `CN1CCN(c2cnc(Nc3ncc4c5ccncc5n(C5CCCC5)c4n3)cn2)CC1` [Example 78], the IC50 stood at 15 nM. The same measure for `CC1CN(c2cnc(Nc3ncc4c5ccncc5n(C5CCCC5)c4n3)cn2)CC(C)N1` (stereo not shown) [Example 79]: 12 nM. Turning to `C[C@@H]1CN(c2cnc(Nc3ncc4c5ccncc5n(C5CCCC5)c4n3)cn2)CCN1` [Example 80], the IC50 was 3.5 nM. As for `C[C@H]1CN(c2cnc(Nc3ncc4c5ccncc5n(C5CCCC5)c4n3)cn2)CCN1` [Example 81], the IC50 was found to be 9.2 nM. The same measure for `NC1CCN(c2cnc(Nc3ncc4c5ccncc5n(C5CCCC5)c4n3)cn2)CC1` [Example 82]: 2.6 nM.

Regarding `c1cc2c3cnc(Nc4cnc(NC5CCNCC5)cn4)nc3n(C3CCCC3)c2cn1` [Example 83], the IC50 was 12 nM. The same measure for `c1cc2c3cnc(Nc4cnc(N5CCOCC5)cn4)nc3n(C3CCCC3)c2cn1` [Example 84]: 22 nM. Take `CN(C)C1CCN(c2cnc(Nc3ncc4c5ccncc5n(C5CCCC5)c4n3)cn2)CC1` [Example 85]: the IC50 stood at 20 nM. The same measure for `c1cc2c3cnc(Nc4cnc(N5CCCNCC5)cn4)nc3n(C3CCCC3)c2cn1` [Example 86]: 6.4 nM; for `COC1CCN(c2cnc(Nc3ncc4c5ccncc5n(C5CCCC5)c4n3)cn2)C1` (stereo not shown) [Example 87]: 43 nM. The same measure for `CC1CCN(c2cnc(Nc3ncc4c5ccncc5n(C5CCCC5)c4n3)cn2)C1` (stereo not shown) [Example 88]: 477 nM; for `N[C@H]1CCN(c2cnc(Nc3ncc4c5ccncc5n(C5CCCC5)c4n3)cn2)C1` [Example 89]: 7.6 nM; for `N[C@@H]1CCN(c2cnc(Nc3ncc4c5ccncc5n(C5CCCC5)c4n3)cn2)C1` [Example 90]: 5.6 nM. The same measure for `c1cc2c3cnc(Nc4ccc(N[C@@H]5CCNC5)nn4)nc3n(C3CCCC3)c2cn1` [Example 91]: 6.1 nM; for `c1cc2c3cnc(Nc4ccc(N[C@H]5CCNC5)nn4)nc3n(C3CCCC3)c2cn1` [Example 92]: 8.8 nM. `NCC1CCCN(c2ccc(Nc3ncc4c5ccncc5n(C5CCCC5)c4n3)nn2)C1` (stereo not shown) [Example 95]: the IC50 was found to be 4.4 nM.

Regarding `c1cc2c3cnc(Nc4ccc(NCC5CCCCN5)nn4)nc3n(C3CCCC3)c2cn1` (stereo not shown) [Example 99], the concentration for half-maximal inhibition (IC50) came to 4.9 nM. The same measure for `c1cc2c3cnc(Nc4ccc(NCC5COCCN5)nn4)nc3n(C3CCCC3)c2cn1` (stereo not shown) [Example 100]: 6.2 nM. For the compound `COC1CCN(c2ccc(Nc3ncc4c5ccncc5n(C5CCCC5)c4n3)nn2)C1` (stereo not shown) [Example 110], the IC50 stood at 3.4 nM. The same measure for `CN1CCN(c2ccc(Nc3ncc4c5ccncc5n(C5CCCC5)c4n3)nn2)CC1` [Example 112]: 5.9 nM; for `CC1CN(c2ccc(Nc3ncc4c5ccncc5n(C5CCCC5)c4n3)nn2)CC(C)N1` (stereo not shown) [Example 113]: 4.2 nM. Consider `O=C1CN(c2ccc(Nc3ncc4c5ccncc5n(C5CCCC5)c4n3)nn2)CCN1` [Example 115], for which the IC50 was 2.3 nM.

Regarding `NC1CCCN(c2ccc(Nc3ncc4c5ccncc5n(C5CCCC5)c4n3)nn2)C1` (stereo not shown) [Example 116], the IC50 is 2 nM. Turning to `N#CC1CCN(c2ccc(Nc3ncc4c5ccncc5n(C5CCCC5)c4n3)nn2)C1` (stereo not shown) [Example 118], the IC50 was 4.2 nM. The same measure for `CC1CCN(c2ccc(Nc3ncc4c5ccncc5n(C5CCCC5)c4n3)nn2)C1` (stereo not shown) [Example 120]: 19 nM; for `CCC1CN(c2ccc(Nc3ncc4c5ccncc5n(C5CCCC5)c4n3)nn2)CCN1` (stereo not shown) [Example 121]: 4.3 nM; for `O=c1[nH]ccc2c3cnc(Nc4ccc(N5CCNCC5)nn4)nc3n(C3CCCC3)c12` [Example 122, 9-Cyclopentyl-2-((6-(1-piperazinyl)-3-pyridazinyl)amino)-7,9-dihydro-8H-pyrido[4′,3′:4,5]pyrrolo[2,3-d]pyrimidin-8-one]: 8.7 nM. The same measure for `CN(C)C1CCN(c2ccc(Nc3ncc4c5cc[nH]c(=O)c5n(C5CCCC5)c4n3)nc2)CC1` [Example 123]: 48.1 nM. Take `CC1CN(c2ccc(Nc3ncc4c5cc[nH]c(=O)c5n(C5CCCC5)c4n3)nc2)CC(C)N1` (stereo not shown) [Example 124]: the IC50 stood at 17 nM. As to `CC1CN(c2ccc(Nc3ncc4c5cc[nH]c(=O)c5n(C5CCCC5)c4n3)nn2)CC(C)N1` (stereo not shown) [Example 125], the IC50 was determined as 12 nM. The same measure for `NC1CCN(c2ccc(Nc3ncc4c5cc[nH]c(=O)c5n(C5CCCC5)c4n3)nn2)CC1` [Example 126]: 2 nM; for `CN(C)C1CCN(c2ccc(Nc3ncc4c5cc[nH]c(=O)c5n(C5CCCC5)c4n3)nn2)CC1` [Example 127]: 5.3 nM. The same measure for `CN1CCN(c2ccc(Nc3ncc4c5cc[nH]c(=O)c5n(C5CCCC5)c4n3)nn2)CC1` [Example 128]: 29 nM; for `C[C@H]1CN(c2ccc(Nc3ncc4c5cc[nH]c(=O)c5n(C5CCCC5)c4n3)nn2)CCN1` [Example 129]: 16 nM. The same measure for `CC1(C)CN(c2ccc(Nc3ncc4c5cc[nH]c(=O)c5n(C5CCCC5)c4n3)nn2)CCN1` [Example 130]: 20 nM. For `NC1CCN(c2nc(Nc3ncc4c5ccncc5n(C5CCCC5)c4n3)ns2)CC1` [Example 131, 4-Amino-1-(3-((9-cyclopentyl-9H-pyrido[4′,3′:4,5]pyrrolo[2,3-d]pyrimidin-2-yl)amino)-5-1,2,4-thiadiazolyl)-piperidine], the IC50 came to 174 nM. The same measure for `c1cc2c3cnc(Nc4nsc(N5CCNCC5)n4)nc3n(C3CCCC3)c2cn1` [Example 132]: 302 nM; for `CN1CCN(c2nc(Nc3ncc4c5ccncc5n(C5CCCC5)c4n3)ns2)CC1` [Example 133]: 100 nM.

Take `CN(C)C1CCN(c2nc(Nc3ncc4c5ccncc5n(C5CCCC5)c4n3)ns2)CC1` [Example 134]: the IC50 came to 190 nM. For the compound `c1cc2c3cnc(Nc4nsc(NC5CCNC5)n4)nc3n(C3CCCC3)c2cn1` (stereo not shown) [Example 135], the IC50 came out at 10000 nM. The same measure for `O=C(CO)N1CCN(c2ccc(Nc3ncc4c5ccncc5n(C5CCCC5)c4n3)nc2)CC1` [Example 151, 2-(4-(6-((9-Cyclopentyl-9H-pyrido[4′,3′:4,5]pyrrolo[2,3-d]pyrimidin-2-yl)amino)-3-pyridinyl)-1-piperazinyl)-2-oxoethanol]: 3 nM; for `CN(C)C1CCN(c2ccc(Nc3ncc4c5ccnc(Cl)c5n(C5CCCC5)c4n3)nn2)CC1` [Example 154, 8-Chloro-9-cyclopentyl-N-(6-(4-(dimethylamino)-1-piperidinyl)-3-pyridazinyl)-9H-pyrido[4′,3′:4,5]pyrrolo[2,3-d]pyrimidin-2-amine]: 20 nM.

What is called IC50 is the concentration at which inhibition is half-maximal.
